Data: patent publication US12606568B2, “SMARCA degraders and uses thereof” (Kymera Therapeutics, Inc., priority 2020, dated 2026)

Columns and labels:
Format in all cases: cell-based
SMARCA2 [1] = biological target: T1, SMARCA2 (Homo sapiens, UniProt P51531); assay: SMARCA2 Western blot MV4-11 degradation; design: SMARCA2 and SMARCA4 protein degradation in MV4-11 cells; endogenous in cells; host or cells: MV4-11; conditions: for Dmax: MV4-11, MV4-11 cells, read-out: SMARCA2 MSD MV411 degradation 24 h: average Dmax %; for Dmax / DC50: 24 h; for DC50 / SMARCA2 MSD MV411 degradation 24 h: average Dmax %: MV4-11 cells; for DC50: read-out: SMARCA2 MSD MV411 degradation 24 h: Mean external-Abs DC50
SMARCA2 [2] = biological target: T1, SMARCA2; assay: MSD SMARCA2 degradation in A549 cell line; design: endogenous in cells; conditions: for Dmax: A549, A549 cells; for Dmax / DC50: 24 h; for DC50 / SMARCA2 MSD A549 degradation 24 h: Average Dmax %: A549 cells; for DC50: read-out: SMARCA2 MSD A549 degradation 24 h: Average external-Abs DC50
Procedure, shortened: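 A549 cells treated 24 h with compound, 3-fold series 1000 nM down to 0.152 nM plus DMSO. RIPA lysates captured on MSD plates, probed with rabbit anti-SMARCA2/BRM (1 µg/ml) then SULFO-TAG anti-rabbit, electrochemiluminescence read. DC50 and 24 h Dmax reported as letter bins.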

SMARCA4 = biological target: T2, SMARCA4 (Homo sapiens, UniProt P51532); assay: SMARCA4 Western blot MV4-11 degradation; conditions: for Dmax: MV4-11, MV4-11 cells, read-out: SMARCA4 MSD MV411 degradation 24 h: average Dmax %; for Dmax / DC50: 24 h; for DC50 / SMARCA4 MSD MV411 degradation 24 h: average Dmax %: MV4-11 cells; for DC50: read-out: SMARCA4 MSD MV411 degradation 24 h: Mean external-Abs DC50
T2 construct: SMARCA2 and SMARCA4 protein degradation in MV4-11 cells; endogenous in cells; host or cells: MV4-11
T2 sequence (P51532 whole entry): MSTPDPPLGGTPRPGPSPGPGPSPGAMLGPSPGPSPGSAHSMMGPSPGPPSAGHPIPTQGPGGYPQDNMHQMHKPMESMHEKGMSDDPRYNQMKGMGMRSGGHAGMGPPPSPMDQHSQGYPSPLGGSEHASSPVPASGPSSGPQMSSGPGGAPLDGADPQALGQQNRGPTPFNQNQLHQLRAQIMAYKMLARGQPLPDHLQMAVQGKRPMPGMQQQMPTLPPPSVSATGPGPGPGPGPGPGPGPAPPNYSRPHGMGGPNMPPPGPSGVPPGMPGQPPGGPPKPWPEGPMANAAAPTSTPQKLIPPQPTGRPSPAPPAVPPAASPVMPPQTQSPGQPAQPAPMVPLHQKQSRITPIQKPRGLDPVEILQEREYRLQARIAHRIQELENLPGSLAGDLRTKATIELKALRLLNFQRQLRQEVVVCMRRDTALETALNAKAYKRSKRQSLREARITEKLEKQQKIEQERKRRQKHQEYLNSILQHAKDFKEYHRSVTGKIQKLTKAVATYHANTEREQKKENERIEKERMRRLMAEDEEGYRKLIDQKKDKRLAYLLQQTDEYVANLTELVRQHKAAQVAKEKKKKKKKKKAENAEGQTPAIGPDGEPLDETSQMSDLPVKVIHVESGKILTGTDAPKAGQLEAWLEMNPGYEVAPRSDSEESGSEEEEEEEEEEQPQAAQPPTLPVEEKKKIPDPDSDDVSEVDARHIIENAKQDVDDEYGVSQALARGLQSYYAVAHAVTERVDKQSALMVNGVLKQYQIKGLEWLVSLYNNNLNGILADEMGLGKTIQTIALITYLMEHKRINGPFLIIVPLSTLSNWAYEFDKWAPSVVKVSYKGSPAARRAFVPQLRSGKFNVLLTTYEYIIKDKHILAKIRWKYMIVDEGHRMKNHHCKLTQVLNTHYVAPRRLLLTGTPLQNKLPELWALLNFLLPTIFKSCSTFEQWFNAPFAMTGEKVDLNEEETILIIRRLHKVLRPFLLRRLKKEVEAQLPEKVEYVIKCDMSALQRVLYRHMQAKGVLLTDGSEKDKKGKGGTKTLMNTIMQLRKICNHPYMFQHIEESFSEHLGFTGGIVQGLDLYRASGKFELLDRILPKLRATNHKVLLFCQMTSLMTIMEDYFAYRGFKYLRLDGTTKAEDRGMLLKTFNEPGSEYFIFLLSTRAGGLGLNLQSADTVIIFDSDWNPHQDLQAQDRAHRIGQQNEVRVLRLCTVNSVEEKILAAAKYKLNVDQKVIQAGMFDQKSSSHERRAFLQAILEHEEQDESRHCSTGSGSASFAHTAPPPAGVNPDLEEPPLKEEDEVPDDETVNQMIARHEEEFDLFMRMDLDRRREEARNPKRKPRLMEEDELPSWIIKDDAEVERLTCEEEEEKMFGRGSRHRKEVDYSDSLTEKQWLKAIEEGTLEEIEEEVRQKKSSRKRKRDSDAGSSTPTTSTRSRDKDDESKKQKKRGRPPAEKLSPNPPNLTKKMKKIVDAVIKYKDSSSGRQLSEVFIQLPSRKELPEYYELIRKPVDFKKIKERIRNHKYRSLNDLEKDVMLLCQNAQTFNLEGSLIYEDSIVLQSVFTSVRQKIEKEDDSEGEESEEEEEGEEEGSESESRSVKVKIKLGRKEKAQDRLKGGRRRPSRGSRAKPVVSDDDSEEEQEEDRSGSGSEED

T1 sequence (P51531 whole entry): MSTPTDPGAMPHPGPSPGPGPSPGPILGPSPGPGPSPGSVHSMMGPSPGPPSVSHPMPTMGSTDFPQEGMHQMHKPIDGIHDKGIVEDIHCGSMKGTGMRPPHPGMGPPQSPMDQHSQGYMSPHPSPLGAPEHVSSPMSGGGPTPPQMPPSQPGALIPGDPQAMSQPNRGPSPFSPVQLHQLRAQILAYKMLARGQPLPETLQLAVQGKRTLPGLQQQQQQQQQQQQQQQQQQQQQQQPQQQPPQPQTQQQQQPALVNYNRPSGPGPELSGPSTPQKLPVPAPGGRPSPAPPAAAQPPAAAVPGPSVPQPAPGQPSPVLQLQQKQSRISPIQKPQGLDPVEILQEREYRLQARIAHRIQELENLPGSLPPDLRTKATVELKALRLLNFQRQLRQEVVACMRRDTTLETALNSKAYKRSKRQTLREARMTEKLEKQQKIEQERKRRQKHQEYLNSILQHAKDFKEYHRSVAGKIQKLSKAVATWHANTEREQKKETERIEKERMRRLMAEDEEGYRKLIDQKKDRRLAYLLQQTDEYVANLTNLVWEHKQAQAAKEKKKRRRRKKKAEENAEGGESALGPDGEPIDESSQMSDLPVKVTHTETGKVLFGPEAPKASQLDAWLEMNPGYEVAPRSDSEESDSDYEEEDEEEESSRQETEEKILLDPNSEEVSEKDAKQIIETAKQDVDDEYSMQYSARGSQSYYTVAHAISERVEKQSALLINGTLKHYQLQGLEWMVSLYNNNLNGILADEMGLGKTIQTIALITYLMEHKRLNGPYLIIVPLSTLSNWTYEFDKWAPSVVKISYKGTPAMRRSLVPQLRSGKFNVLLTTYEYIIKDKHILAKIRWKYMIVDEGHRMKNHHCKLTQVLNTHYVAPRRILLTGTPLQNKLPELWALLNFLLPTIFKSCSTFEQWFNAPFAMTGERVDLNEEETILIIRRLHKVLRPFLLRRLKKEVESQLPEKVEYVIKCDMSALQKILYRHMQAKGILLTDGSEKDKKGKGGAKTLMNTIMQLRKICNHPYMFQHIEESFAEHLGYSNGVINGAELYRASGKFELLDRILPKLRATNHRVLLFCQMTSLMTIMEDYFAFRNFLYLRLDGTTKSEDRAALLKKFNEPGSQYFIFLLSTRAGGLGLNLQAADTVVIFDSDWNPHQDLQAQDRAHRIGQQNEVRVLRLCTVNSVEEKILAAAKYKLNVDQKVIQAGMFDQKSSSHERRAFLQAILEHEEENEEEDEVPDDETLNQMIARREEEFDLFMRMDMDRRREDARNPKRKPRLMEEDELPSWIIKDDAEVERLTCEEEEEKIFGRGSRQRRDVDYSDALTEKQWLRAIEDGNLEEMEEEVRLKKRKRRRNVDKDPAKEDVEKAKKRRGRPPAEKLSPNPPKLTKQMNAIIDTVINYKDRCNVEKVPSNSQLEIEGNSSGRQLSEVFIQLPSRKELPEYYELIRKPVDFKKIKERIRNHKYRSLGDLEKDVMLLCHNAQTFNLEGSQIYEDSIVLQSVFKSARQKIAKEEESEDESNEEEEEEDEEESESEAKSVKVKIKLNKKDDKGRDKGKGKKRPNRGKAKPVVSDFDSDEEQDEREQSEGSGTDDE

| SMILES | Dmax (SMARCA2 [1]) [%] | DC50 (SMARCA2 [1]) [nM] | Dmax (SMARCA2 [2]) [%] | DC50 (SMARCA2 [2]) [nM] | Dmax (SMARCA4) [%] | DC50 (SMARCA4) [nM] | SMARCA2 MSD MV411 degradation 24 h: average Dmax % (SMARCA2 [1]) | SMARCA2 MSD A549 degradation 24 h: Average Dmax % (SMARCA2 [2]) | SMARCA4 MSD MV411 degradation 24 h: average Dmax % (SMARCA4) |
| --- | --- | --- | --- | --- | --- | --- | --- | --- | --- |
| Cn1nccc1-c1ccc(CNC(=O)[C@@H]2C[C@@H](O)CN2C(=O)[C@@H](NC(=O)[C@H]2CC3(C2)C[C@H](N2CCC(c4cnc(N5C6CCC5CN(c5cc(-c7ccccc7O)nnc5N)C6)nc4)CC2)C3)C(C)(C)C)cc1 (stereo partly drawn) [I-35, (2S,4R)-1-((2S)-2-(6-(4-(2-(3-(3-amino-6-(2-hydroxyphenyl)pyridazin-4-yl)-3,8-diazabicyclo[3.2.1]octan-8-yl)pyrimidin-5-yl)piperidin-1-yl)spiro[3.3]heptane-2-carboxamido)-3,3-dimethylbutanoyl)-4-hydroxy-N-(4-(1-methyl-1H-pyrazol-5-yl)benzyl)pyrrolidine-2-carboxamide] | 70 to 90 | < 100 | 70 to 90 | 100 to 500 | 50 to 70 | > 1000 |  |  |  |
| Cc1nccn1-c1ccc(CNC(=O)[C@@H]2C[C@@H](O)CN2C(=O)[C@@H](NC(=O)[C@H]2CC3(C2)C[C@H](N2CCC(c4cnc(N5C6CCC5CN(c5cc(-c7ccccc7O)nnc5N)C6)nc4)CC2)C3)C(C)(C)C)cc1 (stereo partly drawn) [I-33, (2S,4R)-1-((2S)-2-(6-(4-(2-(3-(3-amino-6-(2-hydroxyphenyl)pyridazin-4-yl)-3,8-diazabicyclo[3.2.1]octan-8-yl)pyrimidin-5-yl)piperidin-1-yl)spiro[3.3]heptane-2-carboxamido)-3,3-dimethylbutanoyl)-4-hydroxy-N-(4-(2-methyl-1H-imidazol-1-yl)benzyl)pyrrolidine-2-carboxamide] | < 50 | 100 to 500 | < 50 |  | < 50 | > 1000 |  |  |  |
| Cc1ncsc1-c1ccc(CNC(=O)[C@@H]2C[C@@H](O)CN2C(=O)[C@@H](NC(=O)[C@H]2CC3(CC[C@H](N4CCC(c5cnc(N6C7CCC6CN(c6cc(-c8ccccc8O)nnc6N)C7)nc5)CC4)CC3)C2)C(C)(C)C)cc1 (stereo partly drawn) [I-14, (2S,4R)-1-((2S)-2-(7-(4-(2-(3-(3-amino-6-(2-hydroxyphenyl)pyridazin-4-yl)-3,8-diazabicyclo[3.2.1]octan-8-yl)pyrimidin-5-yl)piperidin-1-yl)spiro[3.5]nonane-2-carboxamido)-3,3-dimethylbutanoyl)-4-hydroxy-N-(4-(4-methylthiazol-5-yl)benzyl)pyrrolidine-2-carboxamide] |  | < 100 |  | < 100 |  | > 1000 | B (B (>70-90% degradation)) | B (B (>70-90% o degradation)) | B (B (>70-90% degradation)) |
| Cc1ncsc1-c1ccc([C@H](C)NC(=O)[C@@H]2C[C@@H](O)CN2C(=O)[C@@H](NC(=O)[C@H]2CC3(C2)C[C@H](N2CCC(c4ccc(N5C6CCC5CN(c5cc(-c7ccccc7O)nnc5N)C6)cc4)CC2)C3)C(C)(C)C)cn1 (single isomer, unassigned) [I-6] |  | 501 to 1000 |  | > 1000 |  | > 1000 | C (C (50-70% degradation)) | B (B (>70-90% o degradation)) | A (A (>90% degradation)) |
| Cc1ncsc1-c1ccc(CNC(=O)[C@@H]2C[C@@H](O)CN2C(=O)C(c2cc(OCCCOCCCN3CCC(Cn4cc(-c5cc(-c6ccccc6O)nnc5N)cn4)CC3)no2)C(C)C)cc1 (stereo partly drawn) [I-21, (2S,4R)-1-(2-(3-(3-(3-(4-((4-(3-amino-6-(2-hydroxyphenyl)pyridazin-4-yl)-1H-pyrazol-1-yl)methyl)piperidin-1-yl)propoxy)propoxy)isoxazol-5-yl)-3-methylbutanoyl)-4-hydroxy-N-(4-(4-methylthiazol-5-yl)benzyl)pyrrolidine-2-carboxamide] | > 90 | < 100 | > 90 | > 1000 | 70 to 90 | 501 to 1000 |  |  |  |
| Cc1ncsc1-c1ccc(CNC(=O)[C@@H]2C[C@@H](O)CN2C(=O)[C@@H](NC(=O)CN2CC3(C2)CN(C2CCC(c4cnc(N5C6CCC5CN(c5cc(-c7ccccc7O)nnc5N)C6)nc4)CC2)C3)C(C)(C)C)cc1 (stereo partly drawn) [I-76, (2S,4R)-1-((2S)-2-(2-(6-(4-(2-(3-(3-amino-6-(2-hydroxyphenyl)pyridazin-4-yl)-3,8-diazabicyclo[3.2.1]octan-8-yl)pyrimidin-5-yl)cyclohexyl)-2,6-diazaspiro[3.3]heptan-2-yl)acetamido)-3,3-dimethylbutanoyl)-4-hydroxy-N-(4-(4-methylthiazol-5-yl)benzyl)pyrrolidine-2-carboxamide] | > 90 | < 100 | > 90 | 501 to 1000 | > 90 | < 100 |  |  |  |
| Cc1ncsc1-c1ccc(CNC(=O)[C@@H]2C[C@@H](O)CN2C(=O)[C@@H](NC(=O)[C@H]2CC3(C2)C[C@H](N2CCC(c4ccc(N5C6CCC5CN(c5cc(-c7ccccc7O)nnc5N)C6)cc4)CC2)C3)C(C)(C)C)cn1 (stereo partly drawn) [I-28, (2S,4R)-1-((2S)-2-(6-(4-(4-(3-(3-amino-6-(2-hydroxyphenyl)pyridazin-4-yl)-3,8-diazabicyclo[3.2.1]octan-8-yl)phenyl)piperidin-1-yl)spiro[3.3]heptane-2-carboxamido)-3,3-dimethylbutanoyl)-4-hydroxy-N-((6-(4-methylthiazol-5-yl)pyridin-3-yl)methyl)pyrrolidine-2-carboxamide] |  | 100 to 500 |  | > 1000 |  | > 1000 |  |  |  |
| Cc1ncsc1-c1ccc(CNC(=O)[C@@H]2C[C@@H](O)CN2C(=O)[C@@H](NC(=O)[C@H]2CC3(C2)C[C@H](N2CC4(CN(c5cnc(N6C7CCC6CN(c6cc(-c8ccccc8O)nnc6N)C7)nc5)C4)C2)C3)C(C)(C)C)cc1 (stereo partly drawn) [I-12, (2S,4R)-1-((2S)-2-(6-(6-(2-(3-(3-amino-6-(2-hydroxyphenyl)pyridazin-4-yl)-3,8-diazabicyclo[3.2.1]octan-8-yl)pyrimidin-5-yl)-2,6-diazaspiro[3.3]heptan-2-yl)spiro[3.3]heptane-2-carboxamido)-3,3-dimethylbutanoyl)-4-hydroxy-N-(4-(4-methylthiazol-5-yl)benzyl)pyrrolidine-2-carboxamide] |  | < 100 |  | 100 to 500 |  | > 1000 |  |  |  |
| Cc1ncsc1-c1ccc(CNC(=O)[C@@H]2C[C@@H](O)CN2C(=O)[C@@H](NC(=O)N2CC3(CC(N4CCC(c5cnc(N6C7CCC6CN(c6cc(-c8ccccc8O)nnc6N)C7)nc5)CC4)C3)C2)C(C)(C)C)cc1 [I-58, 6-(4-(2-(3-(3-amino-6-(2-hydroxyphenyl)pyridazin-4-yl)-3,8-diazabicyclo[3.2.1]octan-8-yl)pyrimidin-5-yl)piperidin-1-yl)-N—((S)-1-((2S,4R)-4-hydroxy-2-((4-(4-methylthiazol-5-yl)benzyl)carbamoyl)pyrrolidin-1-yl)-3,3-dimethyl-1-oxobutan-2-yl)-2-azaspiro[3.3]heptane-2-carboxamide] | > 90 | < 100 | > 90 | < 100 | 50 to 70 | 100 to 500 |  |  |  |
| Cc1ncsc1-c1ccc(CNC(=O)[C@@H]2C[C@@H](O)CN2C(=O)[C@@H](NC(=O)CN(C)Cc2cnc(N3C4CCC3CN(c3cc(-c5ccccc5O)nnc3N)C4)nc2)C(C)(C)C)cc1 [I-37, (2S,4R)-1-((2S)-2-(2-(((2-(3-(3-amino-6-(2-hydroxyphenyl)pyridazin-4-yl)-3,8-diazabicyclo[3.2.1]octan-8-yl)pyrimidin-5-yl)methyl)(methyl)amino)acetamido)-3,3-dimethylbutanoyl)-4-hydroxy-N-(4-(4-methylthiazol-5-yl)benzyl)pyrrolidine-2-carboxamide] | > 90 | < 100 | > 90 | 501 to 1000 | > 90 | < 100 |  |  |  |
| Cc1ncsc1-c1ccc(CNC(=O)[C@@H]2C[C@@H](O)CN2C(=O)[C@@H](NC(=O)[C@H]2CC3(C2)C[C@H](N2CCN(c4cnc(N5C6CCC5CN(c5cc(-c7ccccc7O)nnc5N)C6)nc4)CC2)C3)C(C)(C)C)cc1 (single isomer, unassigned) [I-8] | 70 to 90 | < 100 | 70 to 90 | < 100 | < 50 | > 1000 |  |  |  |
| Cc1ncsc1-c1ccc(CNC(=O)[C@@H]2C[C@@H](O)CN2C(=O)C(c2cc(N3CCC(N4CCC(c5cnc(N6C7CCC6CN(c6cc(-c8ccccc8O)nnc6N)C7)nc5)CC4)CC3)no2)C(C)C)cc1 (mixture of isomers) [I-47, (2S,4R)-1-(2-(3-(4-(2-(3-(3-amino-6-(2-hydroxyphenyl)pyridazin-4-yl)-3,8-diazabicyclo[3.2.1]octan-8-yl)pyrimidin-5-yl)-[1,4′-bipiperidin]-1′-yl)isoxazol-5-yl)-3-methylbutanoyl)-4-hydroxy-N-(4-(4-methylthiazol-5-yl)benzyl)pyrrolidine-2-carboxamide] | > 90 | < 100 | > 90 | < 100 | > 90 | < 100 |  |  |  |
| Cc1ncsc1-c1ccc(CNC(=O)[C@@H]2C[C@@H](O)CN2C(=O)[C@@H](NC(=O)[C@H]2CC3(CC[C@H](N4CCC(c5cnc(N6C7CCC6CN(c6cc(-c8ccccc8O)nnc6N)C7)nc5)CC4)CC3)C2)C(C)(C)C)cc1 (some centres unmarked) [I-13] | 70 to 90 | < 100 | > 90 | < 100 | 70 to 90 | > 1000 |  |  |  |
